The values that follow come from patent US20220367023A1, “Method for Predicting a Suitable Therapy” (National University of Singapore, priority 2019, published 2022).

This assay concerns primary HSTCL cells from a patient. The experiment in a line: Ex vivo QPOP drug combination sensitivity, CellTiter-Glo cell viability (11 drugs at 3 doses, OACD). The class given is cell-based, human. A general note: ATP-based viability assays read luminescence as a measure of living cells.
[1] abbreviates: Homo sapiens, concentration used in the ex vivo QPOP experiment, read-out: IC15.
[2] abbreviates: Homo sapiens, concentration used in the ex vivo QPOP experiment, read-out: IC30.
Setting [3] is: concentration used in the ex vivo QPOP experiment.
Where [4] appears, read: output cell viability, 11 drugs at 3 doses.

Read-outs that look alike come from different tables or passages of the source.

Description: Tumor cells from an oncology patient sample are treated with a series of test drug combinations defined by Resolution IV Orthogonal Array Composite Design. This array of tests is used to derive coefficients for single drug and drug-drug interactions for all the drugs within the drug search set. These coefficients are used to calculate a predicted output of potential drug combinations (up to 4 drugs) from the drug search set. Patient-specific drug combinations are prioritized based on predicted output of single drug, 2-drug, 3-drug or 4-drug combinations.
In the current embodiment, primary patient sample that contains tumor cells, either from a blood sample or solid tumor biopsy, is collected. Tumor cells are isolated and seeded 2000 cells/well in Nunc™ 384-Well Clear Polystyrene Plates. In the examples used here, cell viability was performed using the CellTiter-Glo® Luminescent Cell Viability Assay following the manufacturer's instructions (Promega, Madison, Wis., USA).
Datasets for analysis by QPOP are built by ex vivo treatment of primary patient tumor cells with a series of drug combinations determined by orthogonal array composite design (OACD) to use the least number of combinations sufficient for factor screening and in-depth analyses, in concentrations that are at or below clinically approved doses (max Pk conc.), Table 1. […] In these examples here, the viability of cells exposed to the various drug combinations are the phenotypic output which is analyzed by the QPOP assay. The correlation of treatment combination (input) and viability (output) was fitted into a second-order quadratic equation. The coefficients of the second-order equation represent the correlation between the input, drug dose of the drug combination, and the output cell viability, allowing for optimizing drug combination. In the analysis, each drug combination was represented as a vector and coded dosages were used in MATLAB. The second-order quadratic equation is as follows:
where y represents the desired output, xn is the nth drug dosage, β0 is the intercept term, βn is the single-drug coefficient of the nth drug, βmn is the interaction coefficient between the mth and nth drugs, and βnn is the quadratic coefficient for the nth drug. […] The coefficients were calibrated using the data points in dose response assay of single drugs and drug combination (Table 2). To ensure the robustness and integrity of the assay, Z′ score is calculated after every QPOP analysis.

As for `Nc1ccn([C@@H]2O[C@H](CO)[C@@H](O)C2(F)F)c(=O)n1` [Gemcitabine], the IC15 under setting [1] was 0.00779 µM. Further, under setting [2], the IC30 was determined as 0.0156 µM.
For the compound `COc1cccc2c1C(=O)c1c(O)c3c(c(O)c1C2=O)C[C@@](O)(C(=O)CO)C[C@@H]3O[C@H]1C[C@H](N)[C@H](O)[C@H](C)O1` [Doxorubucin], the IC15 under setting [1] stood at 0.0225 µM. Further, the IC30 under setting [2] was found to be 0.045 µM.
In the case of L-asparaginase, under setting [3], the IC15 is 0.3 IU/ml and the IC30 came to 0.6 IU/ml. Besides, under setting [4], the “Coefficient estimates of the second-order quadratic fit” value (from here on “Coefficient estimates”) was 2.237 and the “Estimate, single-drug coefficient of the second-order quadratic fit” value was −1.282.
For `C[C@@H]1C[C@H]2[C@@H]3CCC4=CC(=O)C=C[C@]4(C)[C@@]3(F)[C@@H](O)C[C@]2(C)[C@@]1(O)C(=O)CO` [Dexamethasone], for the setting “Homo sapiens”, the IC15 is 0.06 µM and the IC30 was 0.12 µM.
For the compound `O=P1(NCCCl)OCCCN1CCCl` (centres unmarked) [Ifosfamide], where the note is “Homo sapiens”, the IC15 was found to be 15 µM and the IC30 stood at 30 µM. The “Estimate, quadratic coefficient of the second-order quadratic fit” value under setting [4] is 0.001006.
On to `Nc1ccn([C@@H]2O[C@H](CO)[C@@H](O)[C@@H]2O)c(=O)n1` [Cytarabine], for which, under “Homo sapiens”, the IC15 was found to be 0.233 µM and the IC30 is 0.466 µM.
Take `CN(Cc1cnc2nc(N)nc(N)c2n1)c1ccc(C(=O)N[C@@H](CCC(=O)O)C(=O)O)cc1` [Methotrexate]: under setting [1], the IC15 came out at 0.3 µM. For the same compound, under setting [2], the IC30 amounted to 0.6 µM.
For `COc1cc([C@@H]2c3cc4c(cc3[C@@H](O[C@@H]3O[C@@H]5CO[C@@H](C)O[C@H]5[C@H](O)[C@H]3O)[C@H]3COC(=O)[C@H]23)OCO4)cc(OC)c1O` [Etoposide], the IC15 under setting [1] was 0.283 µM. The IC30 under setting [2] amounted to 0.565 µM. Further, under setting [4], the “Coefficient estimates” value is reported as −3.739.
For `O=P1(N(CCCl)CCCl)NCCCO1` (centres unmarked) [Cyclophosphamide], under “Homo sapiens”, the IC15 stood at 30 µM and the IC30 is 60 µM.
For `CC(C)C[C@H](NC(=O)[C@H](Cc1ccccc1)NC(=O)c1cnccn1)B(O)O` [Bortezomib], under setting [1], the IC15 was determined as 0.006 µM. In addition, under setting [2], the IC30 amounted to 0.012 µM. Under setting [4], the “Coefficient estimates” value was 5456.
`N.N.[Cl][Pt][Cl]` [Cisplatin]: the IC15 (concentration used in the ex vivo QPOP experiment, read-out: IC15) came to 1.5 µM. For the same compound, where the note is “concentration used in the ex vivo QPOP experiment, read-out: IC30”, the IC30 was 3 µM. Under setting [4], the “Coefficient estimates” value was −0.06756 and the “Estimate, single-drug coefficient of the second-order quadratic fit” value is listed as 0.06189.
